In USRE37770E1, “Treatment of skin conditions by use of PPARα activators” (The Regents of the University of California, priority 1997, dated 2002):
pEC50: −log10 of the molar value.

Assays:
[1] = test system: involucrin mRNA; assay: Involucrin mRNA in keratinocytes by Northern Blot; assay type: cell-based, Human; conditions: for involucrin (INV) mRNA level compared to the vehicle alone: low calcium (0.03 mM), 24 hours, 10 μM
Procedure: (§1) Human keratinocyte cells were incubated in culture containing calcium at a concentration of 0.03 mM Ca^++ (a level that is too low to induce differentiation). Also included in the culture medium were clofibrate at 400 μM or ETYA at 10 μM and 20 μM, while separate cell cultures were maintained as controls with neither clofibrate nor ETYA. The production of mRNA for both involucrin and transglutaminase was measured at intervals over a 48-hour time period (0, 6, 12, 24, and 48 hours) by Northern Blot analysis. In each case, the lighter bars represent the control cells and the darker bars the cells incubated in the clofibrate-containing medium. The degree of mRNA generated is expressed as a percent of the control at zero hours.
(§2) Human epidermis was isolated from newborn foreskins and keratinocytes were plated in serum-free keratinocyte growth medium (“KGM”; Clonetics, San Diego, Calif. USA), using conventional techniques. Cells were treated with either the test compounds in vehicle or vehicle alone (<0.1% ethanol) for 24 or 48 hours. The test compounds were obtained from Sigma Chemical Co. (St. Louis. Mo. USA) and were stored as 15 mM stock solutions at −20° C. Mevalonate was solubilized in sterile water.
(§3) Total RNA was isolated by using TRIZOL (Sigma Chemical Co.), following the manufacturer's protocol. Ethanol-precipitate RNA pellets were suspended in sterile, diethylpyrocarbonate (DEPC)-treated water, and RNA was quantified by absorbance at 260 nm using the 260/280 nm ratio as an index of purity. RNA (15 μg per sample) was size fractionated through a 1% agarose gel containing 2.2 M formaldehyde. RNA integrity was visualized following acridine orange staining of the gel following electrophoresis. The RNA was transfered to a nylon membrane that was subsequently baked at 80° C. for 2 hours. Blots were hybridized with the appropriate ^32p-labeled probe overnight at 65° C. Washes were then performed in a solution containing 0.1% SSC and 0.1% sodium dedecyl sulfate (SDS) for 20 minutes at room temperature, followed by a 20-minute wash at 65° C. Autoradiography was performed at −70° C. Blots were probed with β-actin to confirm equal loading. Appropriate bands were quantified by densitometry.
(§4) Northern blot analyses were performed on keratinocytes maintained in low calcium (0.03 mM) and incubated for 24 hours in the presence of vehicle alone (<0.1% ethanol) or vehicle containing 25-hydroxycholesterol (10 μM), 22(R)-hydroxycholesterol (10 μM) cholesterol (10 μM), or mevalonate (500 μM) (individually). The mRNA levels of involucrin (“INV”) and transglutaminase (“TG'ase”) are shown in the bar graph of FIG. 14a, the INV indicated by clear bars and the TG'ase by shaded bars, both with error limits shown.

[2] = test system: Normal human keratinocytes; assay: Cornified envelope formation (35S incorporation) in keratinocytes; assay type: cell-based; conditions: 10 μM, 48 hours
[3] = test system: transglutaminase protein; assay: Transglutaminase protein level in keratinocytes by Western blotting; assay type: cell-based, Human; conditions: for TG'ase protein level relative to the control: low calcium (0.03 mM), 24 hours
Procedure: Protein concentration was assessed by protein electrophoresis and Western blotting. Cells were lysed is 2% SDS and the lysate sonicated. Protein determinations were made by use of a Bicinchoninic add protein assay (Pierce Chemical Company, Rockford, Ill. USA). Following protein determination, equal amounts at protein (50 μg) were separated by electrophoresis an 7.5% polyacrylamide gels and electroblotted onto polyvinylidene […] membranes (0.2-μ, obtained from Bio-Rad Laboratories Hercules, Calif., USA). Involucrin protein was detected by incubation over-night at 4° C. C. with a polyclonal rabbit anti-human involucrin antibody (1:1000 dilution). The involucrin-specific bands on the autoradiograms were quantitated by densitometry by densitometry. Transglutaminase protein expression was measured in a similar […], using stacking, sample and running buffers containing 4 M urea, and the gels following electrophoresis were washed in 4 M urea, 25 mM TRIS-HCl, pH 7.4, 7.5 mM NaCl, 0.1 mM dithiothreitol (DTT), and 2 mM ethylenediamine tetraacetic acid for 90 minutes prior to electoblotting, allowing the transglutaminase to be detected by antibody. Specific bands on the autoradiograms were quantified by densitometry. Levels of involucrin and transglutaminase protein were measured in keratinocytes incubated in low calcium (0.03 mM) and treated with the test compounds for 24 hours. The are shown in the bar graph of FIG. 17a, where the test compounds are compared with the vehicle alone (control) and cholesterol, using the same bar indications as in FIGS 14 through 16. […] Cholesterol had no effect.

[4] = test system: keratinocytes; assay: Rate of DNA synthesis (3H-thymidine incorporation) in keratinocytes; assay type: cell-based, Human; conditions: 10 μM, 24 hours, low calcium (0.03 mM); 16-hour 3H-thymidine period
Procedure: The rate of DNA synthesis was determined by measuring the incorporation of ^3H-thymidine into cellular DNA after 16 hours of incubation with 2 μCi^3H-thymidine per mL of media (110 Ci/mmol methyl-1′,2′-^3H-thymidine (Amersham Laboratories, Arlington Heights, Ill. USA). The cells were then solubilized in 1N NaOH, and the radioactivity in the washed TCA precipitate was quantitated by scintillation spectroscopy.
Using the procedures set forth in the Materials and Methods section above, 25-hydroxycholesterol (10 μM) and 22(R)-hydroxycholesterol (10 μM, were compared with cholesterol (10 μM) and the vehicle alone control), with treatment for 24 hours under low calcium (0.03 mM) condition. The results are shown in the bar graph of FIG. 19.

[5] = test system: transglutaminase mRNA; assay: Transglutaminase mRNA in keratinocytes by Northern Blot; assay type: cell-based, Human; conditions: for transglutaminase (TG'ase) mRNA level compared to the vehicle alone: low calcium (0.03 mM), 24 hours, 10 μM
Procedure: as §1, §2, §3, §4

[6] = test system: involucrin protein; assay: Involucrin protein level in keratinocytes by Western Blot; assay type: cell-based, Human; conditions: for increase in INV protein: high calcium (1.2 mM), 15 μM; for INV protein level relative to the control: low calcium (0.03 mM), 24 hours
Procedure: Measurements of the level of the involucrin protein itself were performed in the culture medium by Western Blot. Various incubations were performed, in media containing clofibrate at concentrations ranging from 0 (vehicle only) to 400 μM and calcium ion at both 0.03 mM and 1.2 mM. The results are shown in FIG. 9a for tests with calcium ion at 0.03 mM, and in FIG. 9b for tests with calcium ion at 1.2 mM. In these figures, the protein contents are expressed as percents of the respective measurements taken from media incubated for the same period of time but in the absence of clofibrate.
The procedures of Example 8 were followed, and measurements were taken on the involucrin protein levels from cells incubated at various concentrations of farnesol and juvenile hormone III ranging from 0 (vehicle only) to 15 μM, in media containing 0.03 mM and 1.2 mM calcium ion, for 24 hours. The results are shown in FIG. 10 for farnesol and FIG. 11 for juvenile hormone III, in 0.03 mM Ca^++.
Protein concentration was assessed by protein electrophoresis and Western blotting. Cells were lysed is 2% SDS and the lysate sonicated. Protein determinations were made by use of a Bicinchoninic add protein assay (Pierce Chemical Company, Rockford, Ill. USA). Following protein determination, equal amounts at protein (50 μg) were separated by electrophoresis an 7.5% polyacrylamide gels and electroblotted onto polyvinylidene […] membranes (0.2-μ, obtained from Bio-Rad Laboratories Hercules, Calif., USA). Involucrin protein was detected by incubation over-night at 4° C. C. with a polyclonal rabbit anti-human involucrin antibody (1:1000 dilution). The involucrin-specific bands on the autoradiograms were quantitated by densitometry by densitometry. Transglutaminase protein expression was measured in a similar mmaner, using stacking, sample and running buffers containing 4 M urea, and the gels following electrophoresis were washed in 4 M urea, 25 mM TRIS-HCl, pH 7.4, 7.5 mM NaCl, 0.1 mM dithiothreitol (DTT), and 2 mM ethylenediamine tetraacetic acid for 90 minutes prior to electoblotting, allowing the transglutaminase to be detected by antibody. Specific bands on the autoradiograms were quantified by densitometry.

[7] = test system: involucrin mRNA; assay: Involucrin mRNA in keratinocytes by Northern Blot; assay type: cell-based, Human; conditions: calcium 1.2 mM, 10 μM, 24 hours
[8] = test system: transglutaminase mRNA; assay: Transglutaminase mRNA in keratinocytes by Northern Blot; assay type: cell-based, Human; conditions: calcium 1.2 mM, 10 μM, 24 hours
[9] = doses 0-15.0 μM, low calcium, FIG. 15

CC(C)CC[C@@H](O)[C@@H](C)[C@H]1CC[C@H]2[C@@H]3CC=C4C[C@@H](O)CC[C@]4(C)[C@H]3CC[C@]12C [22(R)-hydroxycholesterol]
pEC50 ([1]; Homo sapiens, Keratinocyte, doses 0-15.0 μM, low calcium, FIG. 15, read-out: dosage of half-maximal effects on INV mRNA): ~5.30 | dosage of maximal effects on INV mRNA [1, 9]: 10 to 15 µM | involucrin (INV) mRNA level compared to the vehicle alone [1]: approximate twofold increase | increase in cornified envelope (CE) formation ([2]; high calcium (1.2 mM)): 2.1 fold | increase in cornified envelope (CE) formation ([2]; low calcium (0.03 mM)): 1.3 fold | increase in TG'ase protein level ([3]; high calcium (1.2 mM), 5 μM): 2.1 fold | TG'ase protein level relative to the control [3]: approximately 2.8 fold | rate of DNA synthesis [4]: 42 % of control | pEC50 ([5]; Homo sapiens, Keratinocyte, doses 0-15.0 μM, low calcium, FIG. 15, read-out: dosage of half-maximal effects on TG'ase mRNA): ~5.30 | dosage of maximal effects on TG'ase mRNA [5, 9]: 10 to 15 µM | transglutaminase (TG'ase) mRNA level compared to the vehicle alone [5]: approximate twofold increase | increase in INV protein [6]: 2.8 fold | INV protein level relative to the control [6]: approximately 3.2 fold

CC(C)CCC[C@@H](C)[C@H]1CC[C@H]2[C@@H]3CC=C4C[C@@H](O)CC[C@]4(C)[C@H]3CC[C@]12C [cholesterol]
involucrin (INV) mRNA level compared to the vehicle alone [1]: neither cholesterol (“chol”) nor mevalonate (“mev”) had any effect | INV mRNA level, induction [7]: no effect | increase in cornified envelope (CE) formation ([2]; high calcium (1.2 mM)): no increase | increase in cornified envelope (CE) formation ([2]; low calcium (0.03 mM)): no increase | TG'ase mRNA level, induction [8]: no effect | TG'ase protein level relative to the control [3]: had no effect | rate of DNA synthesis [4]: 117 % of control | transglutaminase (TG'ase) mRNA level compared to the vehicle alone [5]: neither cholesterol (“chol”) nor mevalonate (“mev”) had any effect | increase in INV protein [6]: essentially no increase | INV protein level relative to the control [6]: had no effect
